According to US9188595B2, “Alzheimer's disease diagnosis based on mitogen-activated protein kinase phosphorylation” (Blanchett Rockefeller Neurosciences Institute, priority 2001, dated 2015):

Columns and labels:
CREB = assay: BK-stimulated CREB phosphorylation (Ser133) and total CREB in skin fibroblasts (Western blot); type: cell-based, human; settings: 10 nM BK 10 min; for Effect on expression of the CREB protein: 10 μM for 15 min
Method: FIGS. 5A, 5B1, 5B2, 5C1 and 5C2. Changes in phosphorylation of, and amounts of CREB after BK stimulation. AC and AD cells were treated with 10 nM BK for 5 or 10 min. Phosphorylated CREB (P-CREB) was measured using a anti-phospho-CREB-Serl33 antibody on Western blots. The mean densities of P-CREB were normalized against the total amount of CREB measured using an anti-“regular CREB” antibody and subjected to statistic analyses.
FIGS. 6A1, 6A2, 6B1, 6B2, 6C1 and 6C2. Effects of different inhibitors on BK-stimulated phosphorylation of CREB. AC and AD cells were preincubated at 37° C. for 15 min with 5 μM BiSM-1 (FIG. 6A), 10 μM PP1 (FIG. 6B), or 5 μM Ly294002 (FIG. 6C) before incubation with 10 nM BK for 10 min Nointalization was performed as with FIGS. 5A-5C and statistical significance of differences were evaluated by 2-way ANOVA. **p<0.0001; *p<0.05.
(§1) For inhibition studies, cells were preincubated with the following concentration of inhibitor at 37° C. for the intervals indicated: 2ABP (50 μM for 30 min); PP1 (10 μM for 15 min); Ly294002 (5 μM for 15 min); and BiSM-1 (5 μM for 15 min). A parallel control flask was incubated with an identical volume of DMSO vehicle. At the end of this incubation, the same inhibitor at the indicated concentration was added and followed immediately by BK to a final concentration of 10 nM. BK (10 nM) was also added to DMSO controls. Basal controls were cells to which neither BK nor inhibitors were added. After a 5-min incubation at 37° C., the reaction was terminated as above.
CREB was detected using analogous methods.
Signals from phosphorylated and nonphosphorylated Erk1/2 (or CREB) were scanned with a Fuji film LAS-1000 Plus scanner. The mean optical density of each protein band was measured using NIH Image software. Values from the phosph-Erk1/2 signals were normalized respectively against the total signal of Erk1/2. After normalization, data from treated cells was converted to a percentage of the basal control and subjected to statistical analyses.

Erk1/2 = assay: BK-stimulated Erk1/2 phosphorylation in skin fibroblasts (Western blot, normalized to total Erk1/2); type: cell-based, human; settings: 10 nM BK 5 min
Method: Banked AC and AD fibroblasts were grown to 80-100% confluence before they were “starved” in a serum-free DMEM overnight. Cells were treated with 10 nM BK at 37° C. for different intervals to establish a time course for BK effects. The same volume of PBS was added to a control flask of cells of each line. The reaction was terminated by removing the medium, rapidly rinsing the cells with pre-cooled PBS, pH 7.4, and transferring the flask onto dry ice/ethanol.
as §1
Cell lysates were prepared from cells of the various groups. Flasks were moved from dry ice/ethanol to ice water. Each flask received 1 ml of lysis buffer (10 mM Tris pH 7.4, 150 mM NaCl, 1 mM EDTA, 1 mM EGTA, pH 8, 0.5% NP-40, 1% Triton X-100, 1% protease inhibitor cocktail (Sigma), 1% cocktail of serine/threonine (Ser/Thr) phosphatase inhibitor and tyrosine (Tyr) phosphatase inhibitor (Sigma). After rocking on an end-to-end shaker in a cold room for 30 min, cells were collected from each flask with a cell scraper. […]
Cell lysates were boiled in an equal volume of 2× SDS-sample buffer for 10 min. […] Phosphorylated Erk1/2 was detected with anti-phospho-Erk1/2 antibody using the SuperSignal ECL detection kit. […]
Signals from phosphorylated and nonphosphorylated Erk1/2 (or CREB) were scanned with a Fuji film LAS-1000 Plus scanner. The mean optical density of each protein band was measured using NIH Image software. […]

[1] = AC and AD cells, preincubation 10 μM for 15 min

With `CN(C)CCCn1cc(C2=C(c3c[nH]c4ccccc34)C(=O)NC2=O)c2ccccc21` [BiSM-1, bisindolylmaleimide-1] the “Effect on BK-stimulated CREB phosphorylation” value (CREB; AC and AD cells (no group effect), preincubation 5 μM for 15 min) was “completely abolished” and the “Effect on BK-induced phosphorylation of Erk1/2” value (Erk1/2; both AC and AD cells, preincubation 5 μM for 15 min) was “abolished”.
With `Cc1ccc(-c2nn(C(C)(C)C)c3ncnc(N)c23)cc1` [PP1] the “Effect on BK-stimulated CREB phosphorylation” value (CREB; [1]) was “inhibited”, the “Effect on expression of the CREB protein” value (CREB; AD cells) was “not observed” and the “Effect on expression of the CREB protein” value (CREB; control (AC) cells) was “increased expression of the CREB protein”. The “Effect on BK-induced Erk1/2 phosphorylation” value (Erk1/2; [1]) was “completely inhibited”.
`O=c1cc(N2CCOCC2)oc2c(-c3ccccc3)cccc12` [LY294002] was tested, and the “Effect on BK-induced Erk1/2 phosphorylation” value (Erk1/2; AD cells, preincubation 5 μM for 15 min) was “failed to inhibit”.
